Test results from patent US20060264460A1 (Wyeth, priority 2005, published 2006).

molecular target: T1, human Cot/Tpl2 kinase (Homo sapiens, UniProt P41279); test: Tpl2/Cot kinase assay: GST-MEK1 phosphorylation detected by ELISA (DELFIA Eu); type: biochemical; settings: 0.4 nM Tpl2, 35 nM GST-MEK1, 50 uM ATP, 1 h at 30° C.
T1 construct: human Cot/Tpl2 kinase construct encoding residues 30-398; 6His (N); made in house; host or cells: Sf9 insect cells, baculovirus system (BD Biosciences)
Outline: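 His-tagged human Tpl2 from Sf9 cells, Ni-affinity and size-exclusion purified (monomer). 0.4 nM Tpl2 with 35 nM GST-MEK1, 50 uM ATP, MOPS pH 7.2, 1% DMSO, 1 h at 30° C; EDTA stop. MEK1 Ser217/221 phosphorylation detected by anti-phospho-MEK1 and Eu-labelled secondary ELISA; IC50 fitted.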

T1 sequence (P41279 30-398): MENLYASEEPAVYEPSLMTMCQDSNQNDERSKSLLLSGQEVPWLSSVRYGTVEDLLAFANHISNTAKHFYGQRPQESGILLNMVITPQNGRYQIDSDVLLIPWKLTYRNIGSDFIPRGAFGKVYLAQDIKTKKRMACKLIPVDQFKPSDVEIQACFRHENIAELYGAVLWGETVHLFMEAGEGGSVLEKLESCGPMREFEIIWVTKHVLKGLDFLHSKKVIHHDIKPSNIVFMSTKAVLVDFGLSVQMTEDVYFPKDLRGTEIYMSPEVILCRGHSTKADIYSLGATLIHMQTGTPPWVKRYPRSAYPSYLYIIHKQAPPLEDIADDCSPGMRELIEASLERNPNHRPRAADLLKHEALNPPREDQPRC

| Structure (SMILES) | IC50 [nM] |
| --- | --- |
| N#Cc1cnc2ccc(NCC3CCNC3)cc2c1Nc1ccc(F)c(Cl)c1 (stereo not shown) [Example 62, 4-(3-Chloro-4-fluoro-phenylamino)-6-[(pyrrolidin-3-ylmethyl)-amino]-quinoline-3-carbonitrile] | > 40000 |
| N#Cc1cnc2c(Cl)cc(NCc3cn(CC(=O)NCc4ccccn4)nn3)cc2c1Nc1ccc(F)c(Cl)c1 [Example 320, 2-(4-((8-chloro-4-(3-chloro-4-fluorophenylamino)-3-cyanoquinolin-6-ylamino)methyl)-1H-1,2,3-triazol-1-yl)-N-(pyridin-2-ylmethyl)acetamide] | 5.6 |
| C[C@@H](Nc1ccc2ncc(C#N)c(Nc3ccc(F)c(Cl)c3)c2c1)c1ccccn1 [Example 172, (R)-4-(3-chloro-4-fluorophenylamino)-6-(1-(pyridin-2-yl)ethylamino)quinoline-3-carbonitrile] | 84 |
| N#Cc1cnc2c(Cl)cc(NCc3cn(CS(=O)(=O)N4CCOCC4)nn3)cc2c1Nc1ccc(F)c(Cl)c1 [Example 224, 8-chloro-4-(3-chloro-4-fluorophenylamino)-6-((1-(morpholinosulfonylmethyl)-1H-1,2,3-triazol-4-yl)methylamino)quinoline-3-carbonitrile] | 280 |
| N#Cc1cnc2c(Cl)cc(NCc3cccc[n+]3[O-])cc2c1Nc1ccc(F)c(Cl)c1 [Example 182, 8-chloro-4-[(3-chloro-4-fluorophenyl)amino]-6-{[(1-oxidopyridin-2-yl)methyl]amino}quinoline-3-carbonitrile] | 18 |
| CS(=O)(=O)c1nccc(CNc2cc(Cl)c3ncc(C#N)c(Nc4ccc(F)c(Cl)c4)c3c2)n1 [Example 282, 8-Chloro-4-[(3-chloro-4-fluorophenyl)amino]-6-({[2-(methylsulfonyl)pyrimidin-4-yl]methyl}amino)quinoline-3-carbonitrile] | 23 |
| CN(C)C(=O)c1cc(NCC2CCCCC2)cc2c(Nc3ccc(F)c(Cl)c3)c(C#N)cnc12 [Example 82, 4-(3-chloro-4-fluorophenylamino)-3-cyano-6-(cyclohexylmethylamino)-N,N-dimethylquinoline-8-carboxamide] | 3900 |
| CN1CCCC(n2cc(CNc3cc(Cl)c4ncc(C#N)c(Nc5ccc(F)c(Cl)c5)c4c3)nn2)CC1 (stereo not shown) [Example 329, 8-chloro-4-[(3-chloro-4-fluorophenyl)amino]-6-({[1-(1-methylazepan-4-yl)-1H-1,2,3-triazol-4-yl]methyl}amino)quinoline-3-carbonitrile] | 4.4 |

same assay, conditions: Table 2; Tpl2/Cot kinase, GST-MEK1 substrate, 50 uM ATP

| Structure (SMILES) | IC50 [nM] |
| --- | --- |
| CC(C)(C)OC(=O)N1CCCN(CCCn2cc(CNc3cc(Br)c4ncc(C#N)c(Nc5ccc(F)c(Cl)c5)c4c3)nn2)CC1 [Example 589] | 520 |
| CC(C)(C)Nc1c(C#N)cnc2ccc(NCc3cnc[nH]3)cc12 [Example 401] | 3100 |
| N#Cc1cnc2c(Br)cc(NCc3ccnn3-c3ccccc3)cc2c1Nc1ccc(F)c(Cl)c1 [Example 433] | 250 |
| N#Cc1cnc2c(Cl)cc(NCc3cn(Cc4ccncc4)cn3)cc2c1Nc1ccc(F)c(Cl)c1 [Example 622] | 5.3 |
| CN(C)CCCc1nc[nH]c1CNc1cc(Cl)c2ncc(C#N)c(Nc3ccc(F)c(Cl)c3)c2c1 [Example 461] | 130 |
| N#Cc1cnc2ccc(NCCN3CCOCC3)cc2c1Nc1cccc(Cl)c1 [Example 350] | 690 |
| N#Cc1cnc2ccc(NCc3ccc4c(c3)OCO4)cc2c1Nc1cccc(Cl)c1 [Example 346] | 600 |
| CN(C)CC#Cc1ncn(COCc2ccccc2)c1CNc1cc(Cl)c2ncc(C#N)c(Nc3ccc(F)c(Cl)c3)c2c1 [Example 460] | 2000 |
| CN(C)CCCn1cc(CNc2cc(Cl)c3ncc(C#N)c(Nc4ccc(F)c(Cl)c4)c3c2)nn1 [Example 514] | 39 |
| CN1CCC(Nc2ccc3ncc(C#N)c(Nc4ccc(F)c(Cl)c4)c3c2)CC1 [Example 364] | > 10000 |
| N#Cc1cnc2c(Cl)cc(NCc3cc[nH]n3)cc2c1Nc1ccc(F)c(Cl)c1 [Example 427] | 47 |
| COCc1nc(CNc2cc(Cl)c3ncc(C#N)c(Nc4ccc(F)c(Cl)c4)c3c2)c[nH]1 [Example 432] | 260 |
| N#Cc1cnc2ccc(NCCN3CCOCC3)cc2c1Nc1ccc(Br)cc1 [Example 355] | > 10000 |
| N#Cc1cnc2c(Cl)cc(NCC(=O)Nc3ccncc3)cc2c1Nc1ccc(F)c(Cl)c1 [Example 602] | 2400 |

same assay, conditions: Tpl2/Cot kinase, GST-MEK1 substrate, 50 uM ATP

| Structure (SMILES) | IC50 [nM] |
| --- | --- |
| CN1CCC(Cn2cc(CN(C)c3cc(Br)c4ncc(C#N)c(Nc5ccc(F)c(Cl)c5)c4c3)nn2)CC1 [Example 679] | 290 |
| N#Cc1cnc2c(Cl)cc(NCc3cn(CC4CCCCC4)nn3)cc2c1Nc1ccc(F)c(Cl)c1 [Example 755] | 790 |
| N#Cc1cnc2c(Cl)cc(NCc3cn(CC(=O)N4CCCCCC4)nn3)cc2c1Nc1ccc(F)c(Cl)c1 [Example 814] | 4.6 |
| CNC(=O)NCCCn1cc(CNc2cc(Cl)c3ncc(C#N)c(Nc4ccc(F)c(Cl)c4)c3c2)nn1 [Example 909] | 1 |
| N#Cc1cnc2c(Br)cc(NCc3cn(CCCO)nn3)cc2c1Nc1ccc(F)c(Cl)c1 [Example 697] | 18 |
| N#Cc1cnc2c(Br)cc(NCc3cn(CCN4CCOCC4)cn3)cc2c1Nc1ccc(F)c(Cl)c1 [Example 669] | 41 |
| CC(=O)Nc1cc(Br)c2ncc(C#N)c(Nc3ccc(F)c(Cl)c3)c2c1 [Example 660] | 4700 |
| CC(C)(C)OC(=O)N1CCCN(CCCn2cc(CNc3cc(Br)c4ncc(C#N)c(Nc5ccc(F)c(Cl)c5)c4c3)nn2)CC1 [Example 762] | 520 |
| N#Cc1cnc2c(Cl)cc(NCC(=O)NCCN3CCOCC3)cc2c1Nc1ccc(F)c(Cl)c1 [Example 777] | 530 |
| N#Cc1cnc2c(Cl)cc(NCc3cn(CCOCCOCCO)nn3)cc2c1Nc1ccc(F)c(Cl)c1 [Example 742] | 91 |
| N#Cc1cnc2c(Br)cc(NCc3cn(-c4ccncc4)nn3)cc2c1Nc1ccc(F)c(Cl)c1 [Example 729] | 5.5 |
| COCCCc1nc[nH]c1CNc1cc(Br)c2ncc(C#N)c(Nc3ccc(F)c(Cl)c3)c2c1 [Example 683] | 62 |
| CC(C)(C)OC(=O)N1CCCC(Cn2cc(CNc3cc(Br)c4ncc(C#N)c(Nc5ccc(F)c(Cl)c5)c4c3)nn2)C1 (stereo not shown) [Example 713] | 120 |
| CS(=O)(=O)NCCCn1cc(CN(C=O)c2cc(Cl)c3ncc(C#N)c(Nc4ccc(F)c(Cl)c4)c3c2)nn1 [Example 916] | 830 |
| CN1CCC[C@@H]1Cn1cc(CNc2cc(Cl)c3ncc(C#N)c(Nc4ccc(F)c(Cl)c4)c3c2)nn1 [Example 891] | 33 |

same assay, conditions: Tpl2/Cot kinase, GST-MEK1 substrate, 50 uM ATP, 1 h at 30° C.; Table 2

| Structure (SMILES) | IC50 [nM] |
| --- | --- |
| CN(C)CCn1cc(CNc2cc(Cl)c3ncc(C#N)c(NC4CCCC4)c3c2)nn1 [Example 946] | 590 |
| N#CCN1CCC(n2cc(CNc3cc(Cl)c4ncc(C#N)c(Nc5ccc(F)c(Cl)c5)c4c3)nn2)CC1 [Example 998] | 22 |
| N#Cc1cnc2c(Cl)cc(NCc3cn(C4CCNCC4)nn3)cc2c1NC1CCOCC1 [Example 987] | 1100 |
| N#Cc1cnc2c(Cl)cc(NC[C@H]3C[C@H](O)CO3)cc2c1Nc1ccc(F)c(Cl)c1 [Example 932] | 410 |
| CC(C)(C)OC(=O)N1CCC(n2cc(COc3cc(Cl)c4ncc(C#N)c(Nc5ccc(F)c(Cl)c5)c4c3)nn2)CC1 [Example 941] | 520 |
| CC#CCn1cc(CNc2cc(Cl)c3ncc(C#N)c(Nc4ccc(F)c(Cl)c4)c3c2)nn1 [Example 995] | 240 |
